Each structure is given as a SMILES string.

The target of one experiment is T1, human recombinant HDAC6 (Homo sapiens, UniProt Q9UBN7).
T1 construct: purchased Calbiochem 382180
T1 sequence (Q9UBN7 1-1215): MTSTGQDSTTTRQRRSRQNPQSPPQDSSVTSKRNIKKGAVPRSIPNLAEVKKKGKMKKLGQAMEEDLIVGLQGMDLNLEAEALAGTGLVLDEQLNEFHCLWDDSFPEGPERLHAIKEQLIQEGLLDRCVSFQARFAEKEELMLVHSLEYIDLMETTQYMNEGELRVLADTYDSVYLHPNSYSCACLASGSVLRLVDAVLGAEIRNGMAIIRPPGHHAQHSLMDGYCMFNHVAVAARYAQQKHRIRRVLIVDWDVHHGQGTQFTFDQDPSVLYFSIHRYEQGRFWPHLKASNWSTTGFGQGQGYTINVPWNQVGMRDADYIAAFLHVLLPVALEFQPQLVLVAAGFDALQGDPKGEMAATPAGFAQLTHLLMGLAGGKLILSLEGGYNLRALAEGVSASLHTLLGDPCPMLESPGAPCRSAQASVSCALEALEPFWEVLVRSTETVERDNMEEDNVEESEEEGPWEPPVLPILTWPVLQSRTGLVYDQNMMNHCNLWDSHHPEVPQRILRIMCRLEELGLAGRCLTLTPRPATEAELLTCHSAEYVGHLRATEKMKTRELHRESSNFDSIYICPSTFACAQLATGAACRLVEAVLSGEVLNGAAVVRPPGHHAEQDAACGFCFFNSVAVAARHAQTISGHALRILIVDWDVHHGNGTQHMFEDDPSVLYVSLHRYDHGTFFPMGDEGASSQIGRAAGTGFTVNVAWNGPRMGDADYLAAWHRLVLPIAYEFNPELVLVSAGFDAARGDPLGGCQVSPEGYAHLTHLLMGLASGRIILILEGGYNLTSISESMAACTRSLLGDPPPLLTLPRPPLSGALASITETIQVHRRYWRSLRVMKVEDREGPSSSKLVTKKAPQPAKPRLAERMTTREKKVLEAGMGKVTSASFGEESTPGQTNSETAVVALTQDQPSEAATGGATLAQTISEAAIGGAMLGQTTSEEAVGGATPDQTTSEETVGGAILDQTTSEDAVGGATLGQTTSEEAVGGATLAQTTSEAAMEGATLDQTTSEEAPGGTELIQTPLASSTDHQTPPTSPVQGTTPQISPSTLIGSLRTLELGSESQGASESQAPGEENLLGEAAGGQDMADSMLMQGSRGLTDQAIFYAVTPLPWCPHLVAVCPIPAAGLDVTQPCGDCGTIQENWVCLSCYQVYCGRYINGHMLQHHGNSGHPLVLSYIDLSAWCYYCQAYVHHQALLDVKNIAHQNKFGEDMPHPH
Description: HDAC6 enzyme activity inhibition assay (HDAC Fluorimetric Drug Discovery Kit). The class given is biochemical. The conditions noted are these: for HDAC6 selectivity (fold): HDAC1 vs HDAC6; for IC50: same protocol as the HDAC1 enzyme activity test. In outline:
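First, compound in 5-fold dilution steps is combined with 0.3 μg enzyme and 10 μM Fluor de Lys-SIRT1 substrate. After 60 min at 30° C, developer is added for 30 min. Fluorescence at Ex 360/Em 460 then gives IC50 values.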

A further experiment has as its target T2, human recombinant HDAC1 (Homo sapiens, UniProt Q13547).
T2 construct: purchased Enzo Life Science BML-SE456
Kind of experiment: HDAC1 enzyme activity inhibition assay (HDAC Fluorimetric Drug Discovery Kit). The class given is biochemical. The conditions noted are these: 0.3 μg enzyme, 10 μM substrate, 30° C., 60 minutes. The protocol:
In order to examine the HDAC6 selectivity of the compounds of formula I of the present invention by HDAC1 and HDAC6 enzymatic activity inhibition assays, an experiment was performed using a conventional substance as a control.
HDAC enzyme activity was measured using a HDAC Fluorimetric Drug Discovery Kit (BML-AK511, 516, Enzo Life Science). For the HDAC1 enzyme activity test, human recombinant HDAC1 (BML-SE456) was used as an enzyme source, and Fluor de Lys®-“SIRT1 (BNL-KI177) was used as a substrate. A 5-fold dilution of the compound was seeded into a 96-well plate, and then 0.3 μg of the enzyme and 10 μM of the substrate were added to each well of the plate and allowed to react at 30° C. for 60 minutes. Then, Fluor de Lys®-Developer II (BML-KI176) was added thereto and allowed to react for 30 minutes, after which the fluorescence value (Ex 360, Em 460) was measured using a multi-plate reader (Flexstation 3, Molecular Device). The HDAC6 enzyme was tested using human recombinant HDAC6 (382180) (Calbiochem) according to the same protocol as the HDAC1 enzyme activity test method. Based on the resulting values, each IC50 value was calculated using GraphPad Prism4.0 program.

T2 sequence (Q13547 whole entry): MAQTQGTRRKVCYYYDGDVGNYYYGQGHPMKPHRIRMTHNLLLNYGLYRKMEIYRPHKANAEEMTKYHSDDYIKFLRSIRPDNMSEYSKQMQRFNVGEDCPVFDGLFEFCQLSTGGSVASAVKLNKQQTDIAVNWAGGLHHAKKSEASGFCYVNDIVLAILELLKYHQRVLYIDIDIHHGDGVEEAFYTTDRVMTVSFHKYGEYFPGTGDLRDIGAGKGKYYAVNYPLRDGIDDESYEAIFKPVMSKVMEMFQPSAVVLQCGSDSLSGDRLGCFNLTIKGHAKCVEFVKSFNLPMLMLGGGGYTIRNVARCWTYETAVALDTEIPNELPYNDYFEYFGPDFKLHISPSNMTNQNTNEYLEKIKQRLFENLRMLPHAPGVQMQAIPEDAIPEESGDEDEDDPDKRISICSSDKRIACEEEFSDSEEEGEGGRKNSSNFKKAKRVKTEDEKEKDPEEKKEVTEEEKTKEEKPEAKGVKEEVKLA

For `CCS(=O)(=O)N(Cc1ccc(-c2nnc(C(F)F)o2)cn1)c1ccc(C)c(F)c1` [Compound 11460, N-((5-(5-(difluoromethyl)-1,3,4-oxadiazol-2-yl)pyridin-2-yl)methyl)-N-(3-fluoro-4-methylphenyl)ethanesulfonamide], the “HDAC6 selectivity (fold)” value at human recombinant HDAC6 came out at 2727 fold. Also, the IC50 (commonly the point on the concentration scale where inhibition reaches its midpoint) at human recombinant HDAC6 was determined as 10 nM; at human recombinant HDAC1, 27300 nM.

With `O=S(=O)(C1CCN(C2CCC2)CC1)N(Cc1ccc(-c2nnc(C(F)F)o2)cc1)c1ccccc1` [Compound 11639, 1-cyclobutyl-N-(4-(5-(difluoromethyl)-1,3,4-oxadiazol-2-yl)benzyl)-N-phenylpiperidine-4-sulfonamide], on human recombinant HDAC6, the “HDAC6 selectivity (fold)” value is 1849 fold. In addition, the values for the IC50 at human recombinant HDAC6 and at human recombinant HDAC1 were 42 nM and 77700 nM, respectively.

`CS(=O)(=O)N(Cc1ccc(-c2nnc(C(F)(F)F)o2)cn1)c1ccc(F)c(Cl)c1` [Compound 11432, N-(3-chloro-4-fluorophenyl)-N-((5-(5-(trifluoromethyl)-1,3,4-oxadiazol-2-yl)pyridin-2-yl)methyl)methanesulfonamide]: on human recombinant HDAC6, the “HDAC6 selectivity (fold)” value was 271 fold and the IC50 turned out to be 61 nM. At human recombinant HDAC1, the IC50 was determined as 16500 nM.

As to `C[C@H]1CCCN1CCCS(=O)(=O)N(Cc1ccc(-c2nnc(C(F)F)o2)cc1)c1ccccc1` [Compound 11707, (S)—N-(4-(5-(difluoromethyl)-1,3,4-oxadiazol-2-yl)benzyl)-3-(2-methylpyrrolidin-1-yl)-N-phenylpropane-1-sulfonamide], on human recombinant HDAC6, the “HDAC6 selectivity (fold)” value was determined as 597 fold. In addition, the IC50 on human recombinant HDAC6 was determined as 71.1 nM; at human recombinant HDAC1, 42500 nM.

On to `O=S(=O)(CCN1CCCC1)N(Cc1ccc(-c2nnc(C(F)F)o2)cc1F)c1ccc(F)c(Cl)c1` [Compound 11514, N-(3-chloro-4-fluorophenyl)-N-(4-(5-(difluoromethyl)-1,3,4-oxadiazol-2-yl)-2-fluorobenzyl)-2-(pyrrolidin-1-yl)ethane-1-sulfonamide], for which, on human recombinant HDAC6, the “HDAC6 selectivity (fold)” value is 938 fold and the IC50 came out at 43 nM. For the same compound, the IC50 at human recombinant HDAC1 came out at 40300 nM.

Regarding `CCS(=O)(=O)N(Cc1ccc(-c2nnc(C(F)F)o2)cn1)c1cc(Cl)cc(Cl)c1` [Compound 11506, N-(3,5-dichlorophenyl)-N-((5-(5-(difluoromethyl)-1,3,4-oxadiazol-2-yl)pyridin-2-yl)methyl)ethanesulfonamide], on human recombinant HDAC6, the “HDAC6 selectivity (fold)” value stood at 4977 fold. The IC50 on human recombinant HDAC6 was 12 nM; on human recombinant HDAC1, 59700 nM.

With `CS(=O)(=O)N(Cc1ccc(-c2nnc(C(F)(F)F)o2)cc1F)c1cccnc1` [Compound 11089, N-(2-fluoro-4-(5-(trifluoromethyl)-1,3,4-oxadiazol-2-yl)benzyl)-N-(pyridin-3-yl)methanesulfonamide], at human recombinant HDAC6, the “HDAC6 selectivity (fold)” value worked out at 957 fold. For the same compound, the figures for the IC50 at human recombinant HDAC6 and on human recombinant HDAC1 were 50 nM and 47900 nM, respectively.

With `CS(=O)(=O)N(Cc1ccc(-c2nnc(C(F)(F)F)o2)cc1F)c1ccc(C(F)(F)F)cc1` [Compound 11220, N-(2-fluoro-4-(5-(trifluoromethyl)-1,3,4-oxadiazol-2-yl)benzyl)-N-(4-(trifluoromethyl)phenyl)methanesulfonamide], at human recombinant HDAC6, the “HDAC6 selectivity (fold)” value was found to be 845 fold and the IC50 stood at 31 nM. For the same compound, on human recombinant HDAC1, the IC50 came to 26200 nM.

As to `CS(=O)(=O)N(Cc1cnc(-c2nnc(C(F)(F)F)o2)cn1)c1ccccc1` [Compound 11573, N-phenyl-N-((5-(5-(trifluoromethyl)-1,3,4-oxadiazol-2-yl)pyrazin-2-yl)methyl)methanesulfonamide], on human recombinant HDAC6, the “HDAC6 selectivity (fold)” value is listed as 1 fold and the IC50 stood at 2290 nM. The IC50 on human recombinant HDAC1 came to 2540 nM.

In the case of `O=S(=O)(CCCN1CCCC1)N(Cc1ccc(-c2nnc(C(F)F)o2)cc1)c1ccccc1` [Compound 11647, N-(4-(5-(difluoromethyl)-1,3,4-oxadiazol-2-yl)benzyl)-N-phenyl-3-(pyrrolidin-1-yl)propane-1-sulfonamide], on human recombinant HDAC6, the “HDAC6 selectivity (fold)” value amounted to 3626 fold and the IC50 turned out to be 22 nM. Further, the IC50 at human recombinant HDAC1 was 79800 nM.

Regarding `Cc1cccc(N(Cc2ccc(-c3nnc(C(F)F)o3)cn2)S(=O)(=O)C2CCN(C3CC4CCC3C4)CC2)c1` (stereo not drawn) [Compound 11686, 1-(bicyclo[2.2.1]heptan-2-yl)-N-((5-(5-(difluoromethyl)-1,3,4-oxadiazol-2-yl)pyridin-2-yl)methyl)-N-(m-tolyl)piperidine-4-sulfonamide], on human recombinant HDAC6, the “HDAC6 selectivity (fold)” value worked out at 654 fold and the IC50 came to 92.1 nM. For the same compound, on human recombinant HDAC1, the IC50 worked out at 60300 nM.

As to `CN1CCC(S(=O)(=O)N(Cc2ccc(-c3nnc(C(F)F)o3)cc2)c2ccccc2)CC1` [Compound 11637, N-(4-(5-(difluoromethyl)-1,3,4-oxadiazol-2-yl)benzyl)-1-methyl-N-phenylpiperidine-4-sulfonamide], on human recombinant HDAC6, the “HDAC6 selectivity (fold)” value turned out to be 3349 fold and the IC50 was 20 nM. Further, on human recombinant HDAC1, the IC50 is 67000 nM.

With `O=C(c1cncn1CCS(=O)(=O)N(Cc1ccc(-c2nnc(C(F)F)o2)cc1)c1ccccc1)C(F)F` [Compound 11678, 2-(5-(2,2-difluoroacetyl)-1H-imidazol-1-yl)-N-(4-(5-(difluoromethyl)-1,3,4-oxadiazol-2-yl)benzyl)-N-phenylethane-1-sulfonamide], on human recombinant HDAC6, the “HDAC6 selectivity (fold)” value is 975 fold. For the same compound, the IC50 on human recombinant HDAC6 stood at 56 nM; at human recombinant HDAC1, 54600 nM.

In the case of `O=S(=O)(CCCO)N(Cc1ccc(-c2nnc(C(F)F)o2)cc1)c1ccccc1` [Compound 11708, N-(4-(5-(difluoromethyl)-1,3,4-oxadiazol-2-yl)benzyl)-3-hydroxy-N-phenylpropane-1-sulfonamide], the “HDAC6 selectivity (fold)” value at human recombinant HDAC6 came out at 837 fold. For the same compound, the values for the IC50 on human recombinant HDAC6 and at human recombinant HDAC1 were 77.8 nM and 65100 nM, respectively.

For the compound `CCS(=O)(=O)N(Cc1ccc(-c2nnc(C(F)F)o2)cn1)c1ccc(Cl)c(Cl)c1` [Compound 11507, N-(3,4-dichlorophenyl)-N-((5-(5-(difluoromethyl)-1,3,4-oxadiazol-2-yl)pyridin-2-yl)methyl)ethanesulfonamide], on human recombinant HDAC6, the “HDAC6 selectivity (fold)” value worked out at 3672 fold and the IC50 stood at 14 nM. Besides, the IC50 at human recombinant HDAC1 was found to be 51400 nM.

Take `CS(=O)(=O)N(Cc1cnc(-c2nnc(C(F)F)o2)cn1)c1ccccc1` [Compound 11518, N-((5-(5-(difluoromethyl)-1,3,4-oxadiazol-2-yl)pyrazin-2-yl)methyl)-N-phenylmethanesulfonamide]: at human recombinant HDAC6, the “HDAC6 selectivity (fold)” value is 586 fold and the IC50 came out at 68 nM. For the same compound, the IC50 on human recombinant HDAC1 is 39800 nM.

Take `O=S1(=O)CCC(S(=O)(=O)N(Cc2ccc(-c3nnc(C(F)F)o3)cn2)c2ccc(F)c(Cl)c2)CC1` [Compound 11497, N-(3-chloro-4-fluorophenyl)-N-((5-(5-(difluoromethyl)-1,3,4-oxadiazol-2-yl)pyridin-2-yl)methyl)tetrahydro-2H-thiopyran-4-sulfonamide 1,1-dioxide]: at human recombinant HDAC6, the “HDAC6 selectivity (fold)” value was 2727 fold and the IC50 stood at 8 nM. For the same compound, the IC50 at human recombinant HDAC1 stood at 21800 nM.

(Values after patent US10538498B2, “1,3,4-oxadiazole sulfonamide derivative compounds as histone deacetylase 6 inhibitor, and the pharmaceutical composition comprising the same” (Chong Kun Dang Pharmaceutical Corp., priority 2015, dated 2020).)
